*1 amine or outer side, *2 acyl side, *3 side chain or, on linkers, in order; H or OH if unused. Where a SMILES comes first, the peptide text is derived from it. Bridges are numbered along the chain shown (N, C = ends). Roman numbers before positions name the chains, in order. [ ]: non-standard residue; d: D form. The star is where a group is joined. Actinocin(9to1) = Cc1c2oc3c(C)ccc(C(=O)[*:1])c3nc-2c(C(=O)[*:2])c(N)c1=O; NMeV = CN[C@H](C(=O)O)C(C)C; Cbz = O=C(OCc1ccccc1)*; Sar = CNCC(=O)O; CH2F = FC*
Legend:
caspase-3 [1] = test: Real-time in vitro analysis of caspase-3 activity in HeLa cells expressing cyclic Fluc; assay type: cell-based
Procedure: (§1) [FIG. 9] Real-time in vitro analysis of caspase-3 activity. Forty eight hours after HeLa cells transfected with pcFluc-DEVD were treated with different concentrations of STS and then the bioluminescence intensities were measured every 5 minutes. The indicated time represents the time after the addition of each agent.
as §1, with “10] Results of the measurement with actinomycin D (ActD) in the same manner as in FIG. 9.” for “9]”, “capsase-3” for “caspase-3”, “actinomycin D (ActD)” for “STS”
pcFluc-DEVD was transfected in the HeLa cells in a 10-cm Petri dish for 24 hours. The cells were scraped off and divided in five 3-cm Petri dishes, for culturing for 24 hours. The culture medium was replaced with the Hank's balanced salt solution (Gibco) containing 500 μM D-luciferin and 5% FBS. After the five 3-cm Petri dishes were mounted on a photon counter (KRONOS, ATTO, Tokyo, Japan), the cells were stimulated with STS or actinomycin D (Act D, Sigma). The luminescence intensity in each of the Petri dishes was assayed for a cumulative time period of 45 seconds at an interval of 5 minutes.
It is known that the time required for caspase-3 activation in response to extracellular stimuli varies with the type of chemical compounds and its concentration. In order to decide upon a screening time, it is crucial to know when the activity of caspase-3 gives a maximum response after stimulation with such apoptotic chemical regents. […] First, the cyclic Fluc indicator was transiently expressed in HeLa cells; the luminescence intensity upon stimulation with STS at various concentrations was monitored every five minutes in a time course (FIG. 9). […] The rate of increase in the luminescence intensity depended on the STS concentration. […] The decrease in the luminescence signal intensity indicates attenuation of active luciferase by proteolysis in the HeLa cells.

caspase-3 [2] = test: Western blot analysis of cyclic and linear Fluc in COS-7 cells transfected with pcFluc-DEVD; assay type: cell-based; conditions: indicated concentrations of STS for two hours, Western blot (FIG. 4)
Procedure: Western blot analysis of Fluc in the circular form and in the linear form. COS-7 cells transfected with pcFluc-DEVD for 48 hours were treated with the indicated concentrations of STS for two hours and harvested. The sample was electrophoresed, transferred on a nitrocellulose membrane and stained with a specific antibody.
pcFluc-DEVD was transfected in the COS-7 cells for 48 hours. The cells were stimulated with staurosporine (STS; Sigma, St. Louise, Mo.) and then disrupted in a lysis buffer (1% SDS, 10% glycerol, 10% 2-mercaptoethanol, 0.001% Bromophenol Blue, 50 mM Tris/HCl, pH 6.8). The sample was electrophoresed with 10% SDS polyacrylamide gel, which was then transferred on a nitrocellulose membrane (Hybond-ECL, GE Healthcare, Buckinghamshire, England). Fluc was detected with a polyclonal anti-luciferase antibody (Promega); the immunoreactivity was evaluated, using horseradish peroxidase (HRP) conjugated to an anti-goat IgG antibody (Promega). The HRP activity was visualized, using an ECL advance Western blotting detection kit (GE Healthcare) with LAS-1000 plus image analyzer (Fuji Film Co., Tokyo, Japan).
To assess whether the fusion protein expressed by pcFluc-DEVD produces cyclic Fluc by protein splicing, herein, pcFluc-DEVD was transfected in COS-7 cells and chimera proteins were transiently expressed for 48 hours. The spliced products were examined by Western blot (FIG. 3). […]

caspase-3 [3] = test: In vitro assay of firefly luciferase in COS-7 cells transfected with pcFluc-DEVD; assay type: cell-based
Procedure: [FIG. 5] Quantitative analysis of the Fluc activity with STS and Z-VAD-FMK. After transfection of COS-7 cells with pcFluc-DEVD for 48 hours, the cells were treated with 100 μM Z-VAD-FMK or vehicle (0.1% DMSO) for an hour and then stimulated with various concentrations of STS for two hours. A relative luminescence unit (RLU) was defined as follows: the luminescence intensity from the right side (LumR) was divided by that from the left side (LumL), as RLU (%)=LumR/LumL.
(§2) pcFluc-DEVD and pRL-TK were transfected in the COS-7 cells and the HeLa cells for 48 hours. These cells were treated with STS or a caspase inhibitor Z-VAD-FMK (Sigma) to assay the luciferase activity according to the report (Ozawa, T. et al. (2001) Anal. Chem. 73, 2516-21; Kanno, A. et al. (2006) Anal. Chem. 78, 556-60). The assay time period of Fluc and Renilla reniformis luciferase (Rluc) was 20 seconds. The luminescence from Fluc (LF) was normalized to the luminescence from Rluc (LR), and the resulting value was defined as relative luminescence unit (RLU; RLU=LF/LR). All the assays were done in various wells in a culture plate triplicately, using a luminometer of MiniLuraat LB9506 (Berthold GmbH & Co. KG, Wildbad, Germany). The results are shown as the mean ratio of the RLU value to the RLU value of cells treated with a solvent (0.1% DMSO), together with the standard deviations.
In the Example, continuously, it was examined whether the activity of the cyclic Fluc was restored after stimulation with STS. COS-7 cells transfected with pcFluc-DEVD were stimulated with STS or a caspase inhibitor Z-VAD-FMK, or with both STS and Z-VAD-FMK. The cells were harvested and their lysates were mixed with a Fluc substrate, D-luciferin. […] The luminescence signals in the presence of Z-VAD-FMK were smaller than the signals that originated from the cells in the absence of STS and Z-VAD-FMK.

caspase-3 [4] = test: Fluc activity in caspase-3-deficient MCF-7 cells transfected with pcFluc-DEVD with or without pCaspase-3; assay type: cell-based
Procedure: Analysis of the Flue activity in the caspase-3-deficient MCF-7 cells. MCF-7 cells were transfected with only pcFluc-DEVD (left) or with both pcFluc-DEVD and pCaspase-3 (right). The cells were incubated for 48 hours and the luminescence intensities were evaluated at the indicated times after stimulation with 100 nM STS. A relative luminescence unit (RLU) was defined as follows: the luminescence intensity from the right side (LumR) was divided by that from the left side (LumL), as RLU (%)=LumR/LumL.

caspase-3 [5] = test: In vitro assay of firefly luciferase in HeLa cells transfected with pcFluc-DEVD; assay type: cell-based
Procedure: (§3) [FIG. 7] Quantitative analysis of the Flue activity with STS. After transfection of HeLa cells with pcFluc-DEVD for 48 hours, the cells were treated with various concentrations of STS for two hours. A relative luminescence unit (RLU) was defined as follows: the luminescence intensity from the right side (LumR) was divided by that from the left side (LumL), as RLU (%)=LumR/LumL.
as §3, with “8]” for “7]”, “Z-VAD-FMK. The” for “STS. After transfection of”, “cells were transfected” for “cells”, “hours,” for “hours, the cells were”, “treated with different concentrations of Z-VAD-FMK or vehicle (0.1% DMSO), and stimulated” for “treated”
as §2
To show the feasibility of cyclic Fluc for characterizing apoptotic regents, the sensitivity of cyclic Fluc was examined, using HeLa cells. The cells were transfected with pcFluc-DEVD, for transient expression of chimera proteins, which were stimulated with different concentrations of STS for two hours. […]

caspase-3 [6] = test: In vivo imaging of caspase-3 activity in living mice implanted with HeLa cells expressing cyclic Fluc; design: species or system BALB/c-nude mouse
Source text: [FIG. 11] In vivo luminescence assay of mice carrying transiently transfected HeLa cells. The mice were subcutaneously implanted with HeLa cells expressing cyclic Fluc (right side) and full-length Fluc (left side). Images of the mice were taken at the indicated times after intraperitoneal injection of STS. A representative of three mice is shown.
[FIG. 12] Time-dependent changes in the photon count from the implanted site in FIG. 11. The relative luminescence unit (RLU) is shown on the longitudinal axis, where RLU=LumR/LumL provided that luminescence intensity from the right side (LumR) is divided with the luminescence intensity from the left side (LumL), as shown in (A). A relative luminescence unit (RLU) was defined as follows: the luminescence intensity from the right side (LumR) was divided by that from the left side (LumL), as RLU (%)=LumR/LumL.
pX8luc or pcFluc-DEVD was transfected in HeLa cells for 48 hours. The cells were harvested and suspended in a phosphate buffered saline (PBS), from which 1.0×10^6 cells were transplanted in two different dorsal positions of a BALB/c-nude mouse (female, five-week-old, body weight of about 17 to 20 g). After the cell transplantation, STS dissolved in DMSO was intraperitoneally injected. Immediately thereafter, a PBS buffer containing D-luciferin (600 mg/kg body weight) was intraperitoneally injected, to assay the luminescence from the mouse, using a CCD camera (IVIS200 system, Xenogen, Alameda, Calif.). Photons emitted from the transplanted cells were counted and cumulatively recorded over one minute. Image analysis was done, using the software LIVING IMAGE (Xenogen). So as to quantitatively determine the assayed luminescence, a region of interest was extracted from the cell-transplanted regions, to evaluate the luminescence intensity (photon·second^−1·cm^−2). […]
To quantitatively evaluate the effect of STS on caspase-3 activity, a relative luminescence unit (RLU) was defined as follows; the luminescence intensity from the right side (LumR) was divided by that from the left side (LumL), as RLU (%)=LumR/LumL. […]

[7] = STS 100 μg/kg of body weight i.p.

Cc1c2oc3c(C)ccc(C(=O)N[C@@H]4C(=O)N[C@H](C(C)C)C(=O)N5CCC[C@H]5C(=O)N(C)CC(=O)N(C)[C@@H](C(C)C)C(=O)O[C@@H]4C)c3nc-2c(C(=O)N[C@@H]2C(=O)N[C@H](C(C)C)C(=O)N3CCC[C@H]3C(=O)N(C)CC(=O)N(C)[C@@H](C(C)C)C(=O)O[C@@H]2C)c(N)c1=O [ActD, actinomycin D] (I: T[dV]P[Sar][NMeV] / II: T[dV]P[Sar][NMeV]; ester I:1-I:C, II:1-II:C; linker I:N-II:N via Actinocin(9to1))
time period over which the luminescence signal intensity increased (caspase-3 [1]; ActD, then gradually decreased (FIG. 10)): 25 to 120 min

CN[C@@H]1C[C@H]2O[C@@](C)([C@@H]1OC)n1c3ccccc3c3c4c(c5c6ccccc6n2c5c31)C(=O)NC4 [STS, staurosporine]
Formation of the linear form of Fluc (caspase-3 [2]): dependent on the concentration of STS
luminescence signals (caspase-3 [3]; COS-7 cells, various concentrations of STS for two hours (FIG. 5)): increased with increase in concentrations of the STS
luminescence from the cells (caspase-3 [4]; MCF-7 cells cotransfected with pcFluc-DEVD and pCaspase-3, stimulation with STS): significantly increased
change in the bioluminescence intensity (caspase-3 [4]; MCF-7 cells transfected with pcFluc-DEVD only, 1 μM STS for two hours): little change
concentration range inducing an increase in the bioluminescence intensity (caspase-3 [5]; HeLa cells, STS for two hours (FIG. 7)): 10 to 1000 nM
time at which luminescence signals reach a maximum after stimulation (caspase-3 [1]; STS at various concentrations (FIG. 9)): 100 min
duration of initial slow increase in the luminescence signals (caspase-3 [1]; STS at various concentrations, measured every five minutes (FIG. 9)): 25 min
luminescence signal from the left side (HeLa cells expressing full-length Fluc, control) (caspase-3 [6]; [7]): no significant change
luminescence signal intensity from the right side (implanted cyclic Fluc cells) (caspase-3 [6]; [7]): significant increase
maximum RLU ratio in comparison to the RLU before STS stimulation (caspase-3 [6]; two hours after the intraperitoneal STS injection, RLU=LumR/LumL (FIG. 12)): 300 to 400%

COC(=O)C[C@H](NC(=O)[C@H](C)NC(=O)[C@@H](NC(=O)OCc1ccccc1)C(C)C)C(=O)CF [Z-VAD-FMK] (Cbz-Val-Ala-Asp(OMe)-CH2F)
luminescence signal relative to signals from vehicle-treated cells (caspase-3 [3]; COS-7 cells treated with 100 μM Z-VAD-FMK (FIG. 5)): 50%
luminescence (caspase-3 [3]; COS-7 cells, 100 μM Z-VAD-FMK, in the presence or absence of 1 μM STS): no increase in luminescence
basal caspase-3 activities (caspase-3 [3]; COS-7 cells, 100 μM Z-VAD-FMK, no STS): completely inhibited
concentrations at which inhibitory effect on the cleavage of the cyclic Fluc was observed (caspase-3 [5]; HeLa cells stimulated with STS for two hours (FIG. 8)): higher than 10 μM
cleavage of the cyclic Fluc (caspase-3 [5]; HeLa cells, 100 μM Z-VAD-FMK, STS stimulation): completely suppressed

From patent publication US8658777B2, “Activated protease indicator” (The University of Tokyo, priority 2007, dated 2014)
